The subject of series [1] is MOLM-14 acute myeloid leukemia cell line. Nature of the series: WST-1 anticancer cell proliferation assay, MOLM-14. Type of series: cell-based. The following applies: Table 4, read-out: Acute Myeloid Leukemia cell lines MOLM-14 IC50. On the procedure: (§1) Anticancer activity was tested against several standard cancer cell lines including brain, breast, Kaposi sarcoma, leukemia, lung, melanoma, tenosynovial giant cell tumor, ovarian, pancreatic, colon and prostate cancer. Cells were trypsinized and plated into 96 well plates in 50 μl of media and incubated overnight. The next day approximately 18 hours after plating, 50 μl of media containing the required flavonoid-based pharmaceutical composition was added per well. Cells were plated at a density so that 72 hours post drug addition, the cells will be in log phase (500)-2000 cells/well). The compounds and extracts were solubilized in Dimethyl sulfoxide (DMSO). The cells are allowed to proliferate for 72 hours 37° C. in humidified atmosphere of 5% CO2. The experiment is terminated using WST-1 (Roche®) 10 μl per well and absorbance is read at 450 nm %690 nm. The effect of drugs on growth is assessed as percent of cell viability. The IC50 values were determined from the extract dose versus control growth curves using Graphpad Prism® software. All experiments were carried out in duplicate and the mean results determined.

For series [2], the system named is 60 cancer cell line panel. The following applies: US National Cancer Institute 60 cancer cell line panel, NSC:719330; cited from earlier work.
The target of series [3] is T1, FLT3 (Homo sapiens, UniProt P36888).
T1 construct: made in house
T1 sequence (P36888 27-993): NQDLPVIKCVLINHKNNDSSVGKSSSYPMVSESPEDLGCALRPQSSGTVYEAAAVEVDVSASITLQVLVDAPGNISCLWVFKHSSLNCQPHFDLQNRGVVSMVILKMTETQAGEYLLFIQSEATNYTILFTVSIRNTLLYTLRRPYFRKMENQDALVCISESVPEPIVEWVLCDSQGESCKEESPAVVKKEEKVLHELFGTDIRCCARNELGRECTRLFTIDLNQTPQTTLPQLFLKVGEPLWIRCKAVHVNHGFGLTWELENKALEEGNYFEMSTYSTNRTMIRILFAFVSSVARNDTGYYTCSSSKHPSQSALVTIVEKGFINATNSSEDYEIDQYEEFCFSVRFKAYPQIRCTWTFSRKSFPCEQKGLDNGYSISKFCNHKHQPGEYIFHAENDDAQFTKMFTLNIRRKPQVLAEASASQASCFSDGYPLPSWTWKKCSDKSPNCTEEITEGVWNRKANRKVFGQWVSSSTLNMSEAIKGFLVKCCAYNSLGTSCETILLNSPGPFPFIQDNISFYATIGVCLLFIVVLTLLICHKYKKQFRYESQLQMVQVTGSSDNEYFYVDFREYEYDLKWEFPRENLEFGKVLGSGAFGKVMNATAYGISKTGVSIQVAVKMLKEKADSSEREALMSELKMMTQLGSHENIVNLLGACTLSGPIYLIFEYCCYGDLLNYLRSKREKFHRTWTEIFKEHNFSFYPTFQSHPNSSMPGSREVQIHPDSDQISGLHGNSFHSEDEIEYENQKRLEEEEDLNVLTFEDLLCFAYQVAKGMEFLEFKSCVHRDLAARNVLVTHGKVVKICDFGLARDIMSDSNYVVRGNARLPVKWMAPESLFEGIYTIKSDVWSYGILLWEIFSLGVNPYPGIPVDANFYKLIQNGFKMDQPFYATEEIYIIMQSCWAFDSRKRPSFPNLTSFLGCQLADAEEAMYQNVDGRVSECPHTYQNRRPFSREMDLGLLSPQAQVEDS
The series is classed as binding. Conditions: Table 4; read-out: Acute Myeloid Leukemia Kinases FLT3 IC50. As for the experimental part: (§2) Cannabis flavonoids and their analogs were subjected to kinase inhibition assay. The compounds were first screened at a single concentration of 10 μM in the primary assay. […] To determine the kd or IC50 values, competition binding assays were established, authenticated and executed as described previously. […] See also, Karaman et al., “A Quantitative Analysis Of Kinase Inhibitor Selectivity”, Nat. Biotechnol. […] For most assays, kinases were fused to T7 phage strains (Fabian, supra) and for the other assays, kinases were produced in HEK-293 cells after which they were tagged with DNA for quantitative PCR detection. In general, full-length constructs were used for small, single domain kinases, and catalytic domain constructs for large multi-domain kinases. […] The liganded beads were blocked with excess biotin and washed with blocking buffer (SeaBlock (Pierce), 1% BSA, 0.05% Tween 20, 1 mM DTT) to remove unbound ligand and to reduce non-specific phage binding. […] All reactions were performed in polypropylene 384-well plates in a final volume of 0.04 ml. […] The kinase concentration in the eluates was measured by quantitative PCR. An illustration of the kinase interaction process is presented below. Kd/IC50 values were determined using a standard dose response curve using the hill equation. Curves were fitted using a non-linear least square fit with the Levenberg-Marquardt algorithm.

For series [4], the target named is T2, FLT3(ITD) (Homo sapiens, UniProt P36888).
T2 construct: In general, full-length constructs were used for small, single domain kinases, and catalytic domain constructs for large multi-domain kinases; fused on or other part: T7 phage fusion or DNA tag for qPCR detection (general statement)
T2 sequence (P36888 1-993): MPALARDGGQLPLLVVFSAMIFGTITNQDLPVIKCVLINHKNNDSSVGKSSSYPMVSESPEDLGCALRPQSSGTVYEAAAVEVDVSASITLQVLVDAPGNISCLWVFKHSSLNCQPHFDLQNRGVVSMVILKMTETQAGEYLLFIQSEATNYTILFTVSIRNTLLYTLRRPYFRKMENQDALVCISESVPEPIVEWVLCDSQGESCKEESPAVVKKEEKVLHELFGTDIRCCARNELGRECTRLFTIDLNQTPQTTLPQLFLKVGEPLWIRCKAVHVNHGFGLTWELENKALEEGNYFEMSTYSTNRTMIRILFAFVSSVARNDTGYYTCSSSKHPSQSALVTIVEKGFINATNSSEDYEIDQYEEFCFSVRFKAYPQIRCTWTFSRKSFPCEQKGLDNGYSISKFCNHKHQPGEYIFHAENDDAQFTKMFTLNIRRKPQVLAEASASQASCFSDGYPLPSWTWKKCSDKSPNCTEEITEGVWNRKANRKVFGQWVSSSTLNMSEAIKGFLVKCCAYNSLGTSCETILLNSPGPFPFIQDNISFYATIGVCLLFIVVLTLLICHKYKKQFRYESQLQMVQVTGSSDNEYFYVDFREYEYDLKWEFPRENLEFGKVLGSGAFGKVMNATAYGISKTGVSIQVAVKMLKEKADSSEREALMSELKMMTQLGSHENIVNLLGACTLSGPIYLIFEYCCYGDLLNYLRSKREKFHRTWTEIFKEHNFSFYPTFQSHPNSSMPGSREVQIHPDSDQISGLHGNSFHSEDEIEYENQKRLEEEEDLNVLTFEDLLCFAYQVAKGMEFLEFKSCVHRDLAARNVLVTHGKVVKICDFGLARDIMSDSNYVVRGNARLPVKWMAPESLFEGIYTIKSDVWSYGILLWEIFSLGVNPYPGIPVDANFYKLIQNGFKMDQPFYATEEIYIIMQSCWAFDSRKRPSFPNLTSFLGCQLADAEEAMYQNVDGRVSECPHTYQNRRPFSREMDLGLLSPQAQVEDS
The series is classed as binding. Conditions: Table 4; read-out: Acute Myeloid Leukemia Kinases FLT3-ITD IC50. As for the experimental part:
as §2

The test system of series [5] is MV4-11 (Leukemia). Nature of the series: WST-1 anticancer cell proliferation assay, MV4-11. Type of series: cell-based. The following applies: Table 4; read-out: Acute Myeloid Leukemia cell lines MV4-11 IC50. On the procedure: as §1
For series [6], the system named is THP-1 acute myeloid leukemia cell line. Briefly: WST-1 anticancer cell proliferation assay, THP-1. The series is classed as cell-based. Conditions: Table 4; read-out: Acute Myeloid Leukemia cell lines THP-1 IC50. On the procedure:
as §1

Series [7] relates to Normal Bone marrow. Nature of the series: Cell viability, normal bone marrow. The series is classed as cell-based. The following applies: Table 4. As for the experimental part: as §1, with “Bioactivity of the above-described compounds has been verified by an anticancer cell proliferation assay using the WST-1 (4-[3-(4-iodophenyl)-2-(4-nitrophenyl)-2H-5-tetrazolio]-1, 3-benzene disulfonate) colorimetric assay by Roche Life Sciences®. Anticancer” for “Anticancer”

The subject of series [8] is MV4-11 AML. Nature of the series: In-vivo efficacy on MV4-11 AML (mice with FLT3-mutated acute myeloid leukemia). The following applies: mouse. The source says: The results of the anticancer activity are presented in Tables 3 and 4 (above) and in FIG. 6, Hela cells shown at (A) and CMK cells at (B) and MV4-11 and MOLT-14 acute myeloid leukemia cells.
Series [9] in a line: Toxicity and safety screen, in vitro profiling. An excerpt: This family of AML-therapeutic targets likewise has the flavone backbone (2-phenyl-1,4-benzopyrone) chemical structure, in this case more defined as shown below (see also FIG. 1B), or any pharmaceutically acceptable salt thereof: […]

Each structure is given as a SMILES string. Values joined by “and” are separate entries in the source; they are usually repeats but may differ in a detail not shown here. Equal values may be shown once. Read-outs that look alike come from different tables or passages of the source.

On to `CO[C@@H]1[C@H](N(C)C(=O)c2ccccc2)C[C@H]2O[C@]1(C)n1c3ccccc3c3c4c(c5c6ccccc6n2c5c31)C(=O)NC4` [Midostaurin, reference compound], for which the IC50 in series [1] (Homo sapiens, MOLM-14) was 22 nM.

Consider `COc1cc(-c2cc(=O)c3c(O)c(CC=C(C)C)c(O)cc3o2)ccc1O` [cannflavin B], for which, in [2], the “cytotoxicity against cancer cells” value is given as “not cytotoxic”.

As for `COc1ccc(-c2cc(=O)c3c(O)cc(O)cc3o2)cc1` [FBLGS-73], the half-maximal inhibitory concentration (IC50) is 127 nM and 152 nM in [3]; 79 nM and 46 nM in [4]; 3680 nM and 4860 nM in [1].

For the molecule `COc1cc(-c2cc(=O)c3c(O)cc(O)cc3o2)ccc1O` [FBLGS-70], the IC50 was 1250 nM in series [5], 1700 nM in series [1], > 100000 nM in series [6] and > 100000 nM in series [7]. For the same molecule, in [8], the “in-vivo efficacy on MV4-11 AML” value was “significant in-vivo efficacy”. The “toxicity or safety screen issues” value in series [9] is on record as “no detectable toxicity or safety screen issues”.

These data come from patent US20180353462A1, “[…] AGENTS […] FLAVONOID DERIVATIVES TARGETING KINASES, SIRTUINS AND ONCOGENIC AGENTS FOR THE TREATMENT OF CANCERS” (priority 2015, published 2018).
